Data on 13 molecules can be found in patent US8609660B2, “4,7-dihydro-pyrazolo[1,5-a]pyrazin-6-ylamine derivatives useful as inhibitors of beta-secretase (BACE)” (Janssen Pharmaceutica NV, priority 2010, dated 2013).

Data set [1] concerns the target T1, recombinant BACE1 protein (Homo sapiens, UniProt P56817).
T1 construct: recombinant BACE1 protein in a final concentration of 1 μg/ml
Nature of the data set: Biochemical FRET based assay. Conditions: recombinant BACE1 1 μg/ml, 120 min, room temperature, pH 5.0; for IC50: read-out: Biochemical FRET based assay pIC50 (converted). An excerpt: Biochemical FRET Based Assay This assay is a Fluorescence Resonance Energy Transfer Assay (FRET) based assay. The substrate for this assay is an APP derived 13 amino acids peptide that contains the 'Swedish' […] mutation of the amyloid precursor protein (APP) β-secretase cleavage site. […] Upon cleavage by BACE1, the fluorophore Mca is separated from the quenching group Dnp, restoring the full fluorescence yield of the donor. The increase in fluorescence is linearly related to the rate of proteolysis (Koike H et al. J Biochem. 1999, 126, 235-42). Briefly in a 384-well format recombinant BACE1 protein in a final concentration of 1 μg/ml is incubated for 120 minutes at room temperature with 10 μm substrate in incubation buffer (40 mM Citrate buffer pH 5.0, 0.04% PEG, 4% DMSO) in the absence or presence of compound. Next the amount of proteolysis is directly measured by fluorescence measurement at T=0 and T=120 (excitation at 320 nm and emission at 405 nm). […] [formula]

The test system of data set [2] is Aβtotal produced and secreted into the medium of human neuroblastoma SKNBE2 cells. Description: Cellular αlisa assay in SKNBE2 cells, Aβtotal. It is filed as cell-based. Conditions: SKNBE2 cells expressing hAPP695, 18 hours incubation; for IC50: Homo sapiens, SKNBE2, 18 h, read-out: Cellular αlisa assay in SKNBE2 cells Aβtotal pIC50 (converted). On the procedure: (§1) Cellular αlisa Assay in SKNBE2 Cells In two αlisa assays the levels of Aβtotal and Aβ42 produced and secreted into the medium of human neuroblastoma SKNBE2 cells are quantified. The assay is based on the human neuroblastoma SKNBE2 expressing the wild type Amyloid Precursor Protein (hAPP695). […] Aβtotal and Aβ42 are measured by sandwich α[…] sandwich assay using biotinylated antibody AbN/25 attached to streptavidin coated beads and antibody Ab4G8 or cAb42/26 conjugated acceptor beads for the detection of Aβtotal and Aβ42 respectively. In the presence of Aβtotal or Aβ42, the beads come into close proximity. The excitation of the Donor beads provokes the release of singlet oxygen molecules that triggers a cascade of energy transfer in the Acceptor beads, resulting in light emission. Light emission is measured after 1 hour incubation (excitation at […] and emission at 615 nm). A best-fit curve is fitted by a minimum sum of squares method to the plot of % Controlmin versus compound concentration. […] [formula]

Data set [3] deals with Aβ42 produced and secreted into the medium of human neuroblastoma SKNBE2 cells. Nature of the data set: Cellular αlisa assay in SKNBE2 cells, Aβ42. It is filed as cell-based. The note with it: SKNBE2 cells expressing hAPP695, 18 hours incubation; for IC50: Homo sapiens, SKNBE2, 18 h, read-out: Cellular αlisa assay in SKNBE2 cells Aβ42 pIC50 (converted). On the procedure: as §1

Data set [4] relates to brain levels of soluble Aβ42. Nature of the data set: In vivo efficacy: brain Aβ42 lowering (ELISA). Details: species or system mouse. The note with it: 30 mpk, sc. From the text:
(§2) To determine whether acute administration of an Aβ42 peptide lowering agent would reduce Aβ peptide levels in vivo, non-transgenic rodents, e.g. mice or rats were used. Animals treated with the Aβ peptide lowering agent were examined and compared to those untreated or treated with vehicle and brain levels of soluble Aβ42 and total Aβ were quantitated by standard techniques, for example, using ELISA. Treatment periods varied from hours (h) to days and were adjusted based on the results of the Aβ42 lowering once a time course of onset of effect could be established.
(§3) A typical protocol for measuring Aβ42 lowering in vivo is shown but it is only one of many variations that could be used to optimize the levels of detectable Aβ. For example, Aβ peptide lowering compounds were formulated in 20% hydroxypropyl β cyclodextrin. The Aβ peptide lowering agents were administered as a single oral dose (p.o.) or a single subcutaneous dose (s.c.) to overnight fasted animals. After a certain time, usually 2 or 4 h (as indicated in Table 19), the animals were sacrificed and Aβ42 levels were analysed.
(§4) Blood was collected by decapitation and exsanguinations in EDTA-treated collection tubes. […] The left hemisphere was stored at −18° C. for quantitative analysis of test compound levels. […]
(§5) Mouse brains from non-transgenic animals were resuspended in 8 volumes of 0.4% DEA (diethylamine)/50 mM NaCl containing protease inhibitors (Roche-11873580001 or 04693159001) per gram of tissue, e.g. for 0.158 g brain, add 1.264 ml of 0.4% DEA. […] Nine parts of supernatant were neutralized with 1 part 0.5 M Tris-HCl pH 6.8 and used to quantify Aβtotal and Aβ42.
To quantify the amount of Aβtotal and Aβ42 in the soluble fraction of the brain homogenates, Enzyme-Linked-Immunosorbent-Assays were used. […] Following this incubation and subsequent wash steps the ELISA for Aβ42 quantification was finished by addition of Quanta Blu fluorogenic peroxidase substrate according to the manufacturer's instructions (Pierce Corp., Rockford, Ill.). A reading was performed after 10 to 15 min (excitation 320 nm/emission 420 nm).

For a further data set, the system named is brain levels of total Aβ. Nature of the data set: In vivo efficacy: brain Aβtotal lowering (ELISA). Details: species or system mouse. Conditions: 30 mpk, sc.
Text: as §2, §3, §4, §5
To quantify the amount of Aβtotal and Aβ42 in the soluble fraction of the brain homogenates, Enzyme-Linked-Immunosorbent-Assays were used. […] Following this incubation and subsequent wash steps the ELISA for Aβ42 quantification was finished by addition of Quanta Blu fluorogenic peroxidase substrate according to the manufacturer's instructions (Pierce Corp., Rockford, Ill.). A reading was performed after 10 to 15 min (excitation 320 nm/emission 420 nm). […]
A general note: In an ELISA, binding on a coated surface is turned into a signal by an enzyme label.

Structures are written as SMILES.

In general, melting point refers to the temperature of the solid-liquid transition.

T1 sequence (P56817 46-501): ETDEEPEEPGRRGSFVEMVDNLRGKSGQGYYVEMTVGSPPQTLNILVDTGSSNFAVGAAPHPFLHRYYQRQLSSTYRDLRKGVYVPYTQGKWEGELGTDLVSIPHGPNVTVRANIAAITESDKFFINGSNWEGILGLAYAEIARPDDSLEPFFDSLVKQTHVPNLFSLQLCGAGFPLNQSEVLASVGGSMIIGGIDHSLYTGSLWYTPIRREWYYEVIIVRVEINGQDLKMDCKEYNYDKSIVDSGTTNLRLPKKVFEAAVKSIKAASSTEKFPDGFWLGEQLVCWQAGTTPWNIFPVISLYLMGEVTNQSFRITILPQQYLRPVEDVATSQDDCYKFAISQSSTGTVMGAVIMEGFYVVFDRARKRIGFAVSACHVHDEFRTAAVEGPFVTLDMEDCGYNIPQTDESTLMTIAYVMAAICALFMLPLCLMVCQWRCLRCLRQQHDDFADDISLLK

Molecule `CC1(c2cc(NC(=O)c3ncc(Cl)cc3Cl)ccc2F)N=C(N)Cn2nc(C(F)(F)F)cc21` (racemic) [Compound 27, rac-N-{3-[6-amino-4-methyl-2-(trifluoromethyl)-4,7-dihydropyrazolo[1,5-a]pyrazin-4-yl]-4-fluorophenyl}-3,5-dichloropyridine-2-carboxamide] displayed a melting point of 198 °C.

Take `COc1cccc(-c2cccc([C@@]3(C)N=C(N)Cn4nccc43)c2)c1` [Compound 7, (R)-4-(3′-methoxybiphenyl-3-yl)-4-methyl-4,7-dihydropyrazolo[1,5-a]pyrazin-6-amine]: the melting point worked out at 153.8 °C.

With `CC1(c2cc(-c3cncnc3)c(F)cc2F)N=C(N)Cn2nccc21` (racemic) [Compound 4, rac-4-(2,4-difluoro-5-pyrimidin-5-yl-phenyl)-4-methyl-4,7-dihydropyrazolo[1,5-a]pyrazin-6-amine], the melting point was 207 °C. Further, the IC50 in data set [1] was 8710 nM. Besides, the IC50 in data set [2] was 1050 nM. The IC50 in data set [3] is 1070 nM.

`CC1(c2cc(NC(=O)c3ccc(Cl)cn3)ccc2F)N=C(N)Cn2nccc21` (single isomer, unassigned) [Compound 10, (S*)—N-[3-(6-Amino-4-methyl-4,7-dihydropyrazolo[1,5-a]pyrazin-4-yl)-4-fluorophenyl]-5-chloropyridine-2-carboxamide] registered a melting point of 199 °C. Further, the IC50 in data set [1] was greater than 30200 nM. The “Cellular αlisa assay in SKNBE2 cells Aβtotal pIC50” value in data set [2] is given as 5.44. Also, in data set [3], the “Cellular αlisa assay in SKNBE2 cells Aβ42 pIC50” value came out at 5.41.

Consider `COc1cncc(-c2cccc(C3(C)N=C(N)Cn4nccc43)c2)c1` (racemic) [Compound 2, rac-4-[3-(5-methoxypyridin-3-yl)-phenyl]-4-methyl-4,7-dihydropyrazolo[1,5-a]pyrazin-6-amine], for which the melting point was determined as 191.8 °C. Moreover, the IC50 in data set [1] is 1660 nM. Moreover, the IC50 in data set [2] was 105 nM. Further, in data set [4] (4 h after administration), the “Aβ42 (% Ctrl)_Mean” value was found to be 109 % Ctrl. Moreover, the IC50 in data set [3] was 112 nM. Also, in the data set on brain levels of total Aβ (4 h after administration), the “Aβtotal (% Ctrl)_Mean” value stood at 116 % Ctrl.

For `CC1(c2cccc(-c3cc(Cl)cc(Cl)c3)c2)N=C(N)Cn2nccc21` (centres unmarked) [Compound 20], the “Biochemical FRET based assay pIC50” value in data set [1] was found to be 6.76. The “Cellular αlisa assay in SKNBE2 cells Aβtotal pIC50” value in data set [2] worked out at 6.37. For the same molecule, the “Aβ42 (% Ctrl)_Mean” value in data set [4] (2 h after administration) worked out at 86 % Ctrl. For the same molecule, the “Cellular αlisa assay in SKNBE2 cells Aβ42 pIC50” value in data set [3] turned out to be 6.33. For the same molecule, in the data set with brain levels of total Aβ (2 h after administration), the “Aβtotal (% Ctrl)_Mean” value is listed as 80 % Ctrl.

`COc1cncc(-c2cccc(C3(C)N=C(N)Cn4nc(C(F)(F)F)cc43)c2)c1` (racemic) [Compound 21, rac-4-[3-(5-methoxypyridin-3-yl)-phenyl]-4-methyl-2-(trifluoromethyl)-4,7-dihydropyrazolo[1,5-a]pyrazin-6-amine]: the melting point was 89.3 °C.

`CC1(c2cc(NC(=O)c3ccc(Cl)cn3)ccc2F)N=C(N)Cn2nccc21` (single isomer, unassigned) [Compound 11, (R*)—N-[3-(6-amino-4-methyl-4,7-dihydropyrazolo[1,5-a]pyrazin-4-yl)-4-fluorophenyl]-5-chloropyridine-2-carboxamide]: the IC50 in data set [1] is 42.7 nM. For the same molecule, the “Cellular αlisa assay in SKNBE2 cells Aβtotal pIC50” value in data set [2] was 8.37. The “Aβ42 (% Ctrl)_Mean” value in data set [4] (4 h after administration) is 71 % Ctrl. Besides, the “Cellular αlisa assay in SKNBE2 cells Aβ42 pIC50” value in data set [3] was determined as 8.36. Further, the “Aβtotal (% Ctrl)_Mean” value in the data set with brain levels of total Aβ (4 h after administration) is 80 % Ctrl.

Molecule `CC1(c2cc(-c3cncc(Cl)c3)ccc2F)N=C(N)Cn2nc(C(F)(F)F)cc21` (racemic) [Compound 24, rac-4-[5-(5-chloropyridin-3-yl)-2-fluorophenyl]-4-methyl-2-(trifluoromethyl)-4,7-dihydropyrazolo[1,5-a]pyrazin-6-amine] gave a melting point of 175.2 °C.

With `NC1=N[C@@](c2cc(NC(=O)c3ncc(Cl)cc3F)ccc2F)(C2CC2)c2ccnn2C1` [Compound 33, (R)—N-{3-[6-amino-4-cyclopropyl-4,7-dihydropyrazolo[1,5-a]pyrazin-4-yl]-4-fluorophenyl}-5-chloro-3-fluoropyridine-2-carboxamide], the melting point was 272.6 °C. Further, the IC50 in data set [1] is 309 nM. Moreover, the IC50 in data set [2] is 20.9 nM. For the same molecule, the IC50 in data set [3] was 25.7 nM.

Consider `CC1(c2cc(-c3cncc(Cl)c3)ccc2F)N=C(N)Cn2nc(C(F)(F)F)cc21` (single isomer, unassigned) [Compound 25, (R*)-4-[5-(5-chloropyridin-3-yl)-2-fluorophenyl]-4-methyl-2-(trifluoromethyl)-4,7-dihydropyrazolo[1,5-a]pyrazin-6-amine], for which the IC50 in data set [1] is 3630 nM. Also, the “Cellular αlisa assay in SKNBE2 cells Aβtotal pIC50” value in data set [2] came to 5.64. The “Cellular αlisa assay in SKNBE2 cells Aβ42 pIC50” value in data set [3] is 5.5.

`CC1(c2cccc(-c3cncnc3)c2)N=C(N)Cn2nccc21` (centres unmarked) [Compound 8]: in data set [1], the “Biochemical FRET based assay pIC50” value is given as 5.65. In addition, the “Cellular αlisa assay in SKNBE2 cells Aβtotal pIC50” value in data set [2] was 6.54. Besides, in data set [3], the “Cellular αlisa assay in SKNBE2 cells Aβ42 pIC50” value came to 6.61.

For the molecule `CC1(c2cc(-c3cncc(Cl)c3)ccc2F)N=C(N)Cn2nc(C(F)(F)F)cc21` (stereo not drawn) [Compound 24, rac-4-[5-(5-chloropyridin-3-yl)-2-fluorophenyl]-4-methyl-2-(trifluoromethyl)-4,7-dihydropyrazolo[1,5-a]pyrazin-6-amine], the IC50 in data set [1] is 7240 nM; in data set [2], 5370 nM; in data set [3], 5890 nM.
